Reference: paper PMC4503722, “Novel Phenotypic Outcomes Identified for a Public Collection of Approved Drugs from a Publicly Accessible Panel of Assays” (PLoS ONE, 2015)
*1 amine or outer side, *2 acyl side, *3 side chain or, on linkers, in order; H or OH if unused. Where a SMILES comes first, the peptide text is derived from it. Bridges are numbered along the chain shown (N, C = ends). Roman numbers before positions name the chains, in order. [ ]: non-standard residue; d: D form. Actinocin(9to1) = Cc1c2oc3c(C)ccc(C(=O)[*:1])c3nc-2c(C(=O)[*:2])c(N)c1=O; NMeV = CN[C@H](C(=O)O)C(C)C; Sar = CNCC(=O)O

Tests used:
[1] = test system: nuclear β-catenin in C2C12 cells; assay: cells; assay type: cell-based; details: for WntCondMedia_bCatenin C2C12 IC50/EC50: assay number 5
[2] = test system: alkaline phosphatase (ALP) activity in C2C12 cells; assay type: cell-based; details: concentration response; for WntCondMedia_Alk Phos C2C12 IC50/EC50: assay number 6
HeLa cells = assay: cells; assay type: cell-based; details: for Hela CellCycMod PI 2N IC50/EC50: assay number 14; for Hela CellCycMod PI S Phase IC50/EC50: assay number 15; for Hela CellCycMod PI 4N IC50/EC50: assay number 16; for Hela CellCycMod PI MI IC50/EC50: assay number 17; for Hela CellCycMod PI Cell Number IC50/EC50: assay number 18
[3] = test system: ECFC/ADSC co-culture cell nuclei number
[4] = test system: endothelial tube formation in co-cultures of ECFCs and ADSCs treated with VEGF; assay: cells; assay type: cell-based, human
SW480 = assay: cells; assay type: cell-based; details: basal
RKO = assay: cells; assay type: cell-based; details: assay number 29; basal
DLD-1 = assay: cells; assay type: cell-based; details: basal
Colo320 = assay: cells; assay type: cell-based; details: basal
[5] = test system: HCT116 cells treated with a GSK3β inhibitor; assay: cells; assay type: cell-based; details: GSK3b inhibitor pretreated
hKDR = molecular target: T1, hKDR (Homo sapiens, UniProt P35968); assay: Cerep LANCE kinase assay hKDR (S1 assay 32); assay type: biochemical; details: read-out: KDR
T1 construct: purchased Cerep (LANCE kinase assay platform, contract assay)
T1 sequence (P35968 20-1356): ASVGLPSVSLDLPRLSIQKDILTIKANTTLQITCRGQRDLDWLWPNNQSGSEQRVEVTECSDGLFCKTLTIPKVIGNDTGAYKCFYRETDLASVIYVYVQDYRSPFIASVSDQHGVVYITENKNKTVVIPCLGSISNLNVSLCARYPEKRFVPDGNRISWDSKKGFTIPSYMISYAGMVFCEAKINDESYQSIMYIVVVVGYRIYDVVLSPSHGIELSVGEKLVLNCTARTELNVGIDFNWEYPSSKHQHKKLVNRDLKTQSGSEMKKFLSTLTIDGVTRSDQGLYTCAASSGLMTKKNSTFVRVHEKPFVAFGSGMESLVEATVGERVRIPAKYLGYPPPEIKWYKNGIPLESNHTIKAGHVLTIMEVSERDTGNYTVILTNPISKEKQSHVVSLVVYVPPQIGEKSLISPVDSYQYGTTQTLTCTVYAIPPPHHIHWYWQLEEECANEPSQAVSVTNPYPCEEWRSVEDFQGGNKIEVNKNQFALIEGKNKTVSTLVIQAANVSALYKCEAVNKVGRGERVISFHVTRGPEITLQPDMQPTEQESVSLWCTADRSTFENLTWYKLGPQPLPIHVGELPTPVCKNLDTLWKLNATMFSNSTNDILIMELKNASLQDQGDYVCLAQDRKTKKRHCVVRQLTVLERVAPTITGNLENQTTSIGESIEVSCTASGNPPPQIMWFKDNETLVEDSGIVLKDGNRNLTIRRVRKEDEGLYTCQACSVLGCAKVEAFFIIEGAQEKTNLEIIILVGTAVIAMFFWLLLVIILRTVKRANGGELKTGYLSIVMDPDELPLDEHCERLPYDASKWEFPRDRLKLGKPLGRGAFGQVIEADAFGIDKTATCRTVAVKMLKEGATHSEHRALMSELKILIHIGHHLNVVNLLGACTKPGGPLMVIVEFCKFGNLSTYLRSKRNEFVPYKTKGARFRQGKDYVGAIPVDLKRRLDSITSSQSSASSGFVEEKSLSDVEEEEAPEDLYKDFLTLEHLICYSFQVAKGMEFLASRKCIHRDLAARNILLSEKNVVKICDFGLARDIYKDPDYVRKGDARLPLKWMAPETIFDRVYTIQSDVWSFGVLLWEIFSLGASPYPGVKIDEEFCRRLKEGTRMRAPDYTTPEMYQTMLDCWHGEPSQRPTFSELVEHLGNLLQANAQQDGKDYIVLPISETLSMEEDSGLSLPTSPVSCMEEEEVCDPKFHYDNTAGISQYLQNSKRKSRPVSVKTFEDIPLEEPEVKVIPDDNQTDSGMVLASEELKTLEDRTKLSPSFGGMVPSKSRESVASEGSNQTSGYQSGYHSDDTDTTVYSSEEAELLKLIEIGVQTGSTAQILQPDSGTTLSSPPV

hFLT3 = molecular target: T2, hFLT3 (Homo sapiens, UniProt P36888); assay: Cerep LANCE kinase assay hFLT3 (S1 assay 35); assay type: biochemical; details: read-out: FLT3
T2 construct: purchased Cerep (LANCE kinase assay platform, contract assay)
T2 sequence (P36888 27-993): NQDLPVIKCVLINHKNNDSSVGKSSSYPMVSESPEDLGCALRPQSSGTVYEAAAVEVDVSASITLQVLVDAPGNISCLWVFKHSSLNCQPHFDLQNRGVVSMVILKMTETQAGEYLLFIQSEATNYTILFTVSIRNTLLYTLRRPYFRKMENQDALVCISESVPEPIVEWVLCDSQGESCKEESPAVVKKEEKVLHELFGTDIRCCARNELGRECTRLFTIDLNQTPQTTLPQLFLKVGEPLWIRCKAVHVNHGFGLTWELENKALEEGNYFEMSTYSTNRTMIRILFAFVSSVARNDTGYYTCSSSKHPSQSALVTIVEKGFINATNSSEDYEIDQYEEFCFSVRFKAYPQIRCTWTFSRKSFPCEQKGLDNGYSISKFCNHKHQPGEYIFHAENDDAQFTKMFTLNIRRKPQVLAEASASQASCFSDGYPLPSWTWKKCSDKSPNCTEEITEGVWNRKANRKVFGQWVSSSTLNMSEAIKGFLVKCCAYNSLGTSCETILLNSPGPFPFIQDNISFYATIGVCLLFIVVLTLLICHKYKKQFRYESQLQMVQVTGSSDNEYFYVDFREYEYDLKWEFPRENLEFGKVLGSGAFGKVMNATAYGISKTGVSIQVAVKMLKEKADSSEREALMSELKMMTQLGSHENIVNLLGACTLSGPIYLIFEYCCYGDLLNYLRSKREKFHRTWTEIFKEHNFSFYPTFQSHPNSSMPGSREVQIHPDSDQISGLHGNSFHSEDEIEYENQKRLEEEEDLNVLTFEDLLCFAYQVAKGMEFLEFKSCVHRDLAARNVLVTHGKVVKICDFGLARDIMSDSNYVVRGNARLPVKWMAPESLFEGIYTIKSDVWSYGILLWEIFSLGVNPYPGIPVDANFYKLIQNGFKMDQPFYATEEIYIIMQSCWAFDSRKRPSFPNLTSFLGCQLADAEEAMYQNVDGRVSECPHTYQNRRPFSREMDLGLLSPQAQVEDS

INS-1E cells = assay: cells; assay type: cell-based, rat; details: IC50 / EC50; INS-1E; read-out: Insulin Secretion
hGSK3b = molecular target: T3, hGSK3b (Homo sapiens, UniProt P49841); assay: Cerep LANCE kinase assay hGSK3b (S1 assay 34); assay type: biochemical; details: read-out: GSK3b
T3 construct: purchased Cerep (LANCE kinase assay platform, contract assay)
T3 sequence (P49841 whole entry): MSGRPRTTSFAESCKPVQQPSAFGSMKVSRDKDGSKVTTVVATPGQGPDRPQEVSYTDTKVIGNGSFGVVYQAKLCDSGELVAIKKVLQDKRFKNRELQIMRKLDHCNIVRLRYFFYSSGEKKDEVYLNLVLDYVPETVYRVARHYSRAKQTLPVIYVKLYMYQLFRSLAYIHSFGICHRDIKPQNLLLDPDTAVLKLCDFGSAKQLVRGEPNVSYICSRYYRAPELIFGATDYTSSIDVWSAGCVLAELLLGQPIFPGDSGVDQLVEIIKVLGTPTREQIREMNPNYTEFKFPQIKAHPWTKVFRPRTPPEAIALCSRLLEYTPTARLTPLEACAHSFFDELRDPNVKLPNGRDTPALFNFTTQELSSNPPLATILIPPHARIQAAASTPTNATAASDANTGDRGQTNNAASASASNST

SNU-C1 = assay: cells; assay type: cell-based; details: basal; read-out: Basal_Viability ATP SNU-C1
STC-1 cell line = assay type: cell-based, mouse
hp70S6K1 (RPS6KB1) = molecular target: T4, hp70S6K1 (RPS6KB1) (Homo sapiens, UniProt P23443); assay: Cerep LANCE kinase assay hp70S6K1 (S1 assay 31); assay type: biochemical; details: read-out: p70S6K1
T4 construct: purchased Cerep (LANCE kinase assay platform, contract assay)
T4 sequence (P23443 whole entry): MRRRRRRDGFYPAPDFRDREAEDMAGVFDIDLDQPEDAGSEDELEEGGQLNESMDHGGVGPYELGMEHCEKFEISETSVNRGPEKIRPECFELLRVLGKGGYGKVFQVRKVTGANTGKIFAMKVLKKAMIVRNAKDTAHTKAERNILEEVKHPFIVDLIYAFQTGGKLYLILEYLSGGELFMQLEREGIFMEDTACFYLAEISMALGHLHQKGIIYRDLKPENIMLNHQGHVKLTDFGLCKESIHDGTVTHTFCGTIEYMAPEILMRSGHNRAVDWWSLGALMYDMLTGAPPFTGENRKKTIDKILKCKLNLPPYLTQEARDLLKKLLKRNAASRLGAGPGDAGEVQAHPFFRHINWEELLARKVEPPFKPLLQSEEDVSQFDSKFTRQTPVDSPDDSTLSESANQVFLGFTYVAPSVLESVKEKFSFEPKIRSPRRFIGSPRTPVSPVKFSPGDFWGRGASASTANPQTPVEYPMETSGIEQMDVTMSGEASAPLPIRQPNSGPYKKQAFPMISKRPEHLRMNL

hJAK2 = molecular target: T5, hJAK2 (Homo sapiens, UniProt O60674); assay: Cerep LANCE kinase assay hJAK2 (S1 assay 33); assay type: biochemical; details: read-out: JAK2
T5 construct: purchased Cerep (LANCE kinase assay platform, contract assay)
T5 sequence (O60674 whole entry): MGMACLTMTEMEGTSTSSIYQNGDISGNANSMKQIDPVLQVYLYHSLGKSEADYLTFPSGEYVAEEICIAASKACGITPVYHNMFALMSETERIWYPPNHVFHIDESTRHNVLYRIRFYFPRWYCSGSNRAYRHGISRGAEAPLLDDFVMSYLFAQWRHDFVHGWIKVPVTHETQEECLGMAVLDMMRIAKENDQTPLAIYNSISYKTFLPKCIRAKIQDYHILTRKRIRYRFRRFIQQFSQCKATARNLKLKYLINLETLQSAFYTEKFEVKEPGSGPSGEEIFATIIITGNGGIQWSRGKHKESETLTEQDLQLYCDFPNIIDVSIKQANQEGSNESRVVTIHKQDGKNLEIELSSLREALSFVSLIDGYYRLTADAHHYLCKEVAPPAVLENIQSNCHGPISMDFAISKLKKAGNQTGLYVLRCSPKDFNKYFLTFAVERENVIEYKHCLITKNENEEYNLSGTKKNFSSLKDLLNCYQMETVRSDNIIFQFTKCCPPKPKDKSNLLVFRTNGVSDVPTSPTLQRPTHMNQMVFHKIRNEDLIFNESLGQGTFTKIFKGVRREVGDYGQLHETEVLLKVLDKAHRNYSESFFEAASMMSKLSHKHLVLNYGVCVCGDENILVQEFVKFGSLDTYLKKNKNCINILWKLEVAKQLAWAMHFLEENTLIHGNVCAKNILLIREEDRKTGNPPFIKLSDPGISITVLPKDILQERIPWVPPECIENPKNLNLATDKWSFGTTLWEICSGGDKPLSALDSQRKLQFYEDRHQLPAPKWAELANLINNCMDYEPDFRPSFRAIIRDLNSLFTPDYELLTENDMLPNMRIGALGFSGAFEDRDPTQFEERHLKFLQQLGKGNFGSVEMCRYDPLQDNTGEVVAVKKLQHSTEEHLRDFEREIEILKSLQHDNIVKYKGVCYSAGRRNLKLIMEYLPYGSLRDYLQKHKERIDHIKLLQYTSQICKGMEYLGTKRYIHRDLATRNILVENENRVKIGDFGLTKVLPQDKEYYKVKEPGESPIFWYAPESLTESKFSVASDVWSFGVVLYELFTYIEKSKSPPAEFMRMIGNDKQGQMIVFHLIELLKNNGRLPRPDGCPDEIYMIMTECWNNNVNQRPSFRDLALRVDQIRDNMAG

HT-29 = assay: cells; assay type: cell-based; details: basal; read-out: Basal_Viability ATP HT-29
HCT116 = assay: cells; assay type: cell-based; details: basal; read-out: Basal_Viability ATP HCT116
NCI-H716 cells = assay: cells; assay type: cell-based, Human

| Compound | WntCondMedia_bCatenin C2C12 IC50/EC50 ([1]; concentration response) [µM] | WntCondMedia_Alk Phos C2C12 IC50/EC50 [2] [µM] | VEGF_ADSC\ECFC Angio Hoechst NucArea IC50/EC50 [3] [µM] | VEGF_ADSC\ECFC Angio CD31 TubeArea IC50/EC50 [4] [µM] | Hela CellCycMod PI 2N IC50/EC50 (HeLa cells; 2N) [µM] | Hela CellCycMod PI 4N IC50/EC50 (HeLa cells; 4N) [µM] | Hela CellCycMod PI MI IC50/EC50 (HeLa cells; MI) [µM] | Hela CellCycMod PI Cell Number IC50/EC50 (HeLa cells) [µM] | further results |
| --- | --- | --- | --- | --- | --- | --- | --- | --- | --- |
| CCCCCCCCCCCCCCC[C@H](O)[C@@H](N)CO [NCGC00015362-05] | > 20 | > 20 |  |  |  |  |  |  |  |
| CCCCc1ccc2nc(NC(=O)OC)[nH]c2c1 [NCGC00016706-07] |  |  |  |  |  |  |  |  | IC50/EC50, Hela CellCycMod PI 2N (assay number 14) (HeLa cells; 2N): 0.0104 µM; IC50/EC50, Hela CellCycMod PI 4N (assay number 16) (HeLa cells; 4N): 0.01062 µM; IC50/EC50, Hela CellCycMod PI Cell Number (assay number 18) (HeLa cells; Cell Number): 0.00566 µM; IC50/EC50, Hela CellCycMod PI MI (assay number 17) (HeLa cells; MI): 0.00717 µM; IC50/EC50, Hela CellCycMod PI S Phase (assay number 15) (HeLa cells; S Phase): > 10 µM; IC50/EC50, WntCondMedia_bCatenin C2C12 (assay number 5) ([1]; concentration response): 0.0336 µM; IC50/EC50, WntCondMedia_Alk Phos C2C12 (assay number 6) [2]: 0.0682 µM; IC50/EC50, VEGF_ADSC\ECFC Angio Hoechst NucArea (assay number 3) [3]: > 10 µM; IC50/EC50, VEGF_ADSC\ECFC Angio CD31 TubeArea (assay number 2) [4]: 0.053 µM |
| CN[C@@H]1C[C@@H](c2ccc(Cl)c(Cl)c2)c2ccccc21 [NCGC00025223-04] | > 20 | > 20 | > 10 | > 10 |  |  |  |  |  |
| Cl.O[C@@H](c1cc(C(F)(F)F)nc2c(C(F)(F)F)cccc12)[C@H]1CCCCN1 [NCGC00161831-04] | > 20 | > 20 | 8.609 | > 10 |  |  |  |  |  |
| CCCCCCCCCCOCC(O)CN (centres unmarked) [NCGC00166070-02] | > 20 | > 20 | > 10 | 6.5465 | > 10 | > 10 | > 10 | > 10 | Hela CellCycMod PI S Phase IC50/EC50 (HeLa cells): > 10 µM |
| Cc1cc(CC(C)CC(C)(C)C)n(O)c(=O)c1 (centres unmarked) [NCGC00167586-03] | 0.5913 | > 20 |  |  | > 10 | > 10 | > 10 | 0.1332 | Hela CellCycMod PI S Phase IC50/EC50 (HeLa cells): > 10 µM |
| COc1cc([C@@H]2c3cc4c(cc3[C@@H](O[C@@H]3O[C@@H]5CO[C@@H](C)O[C@@H]5[C@H](O)[C@@H]3O)[C@H]3COC(=O)[C@H]23)OCO4)cc(OC)c1O [NCGC00179504-05] | > 20 | > 20 | 0.9666 | 0.1091 |  |  |  |  |  |
| Cc1nc(Nc2ncc(C(=O)Nc3c(C)cccc3Cl)s2)cc(N2CCN(CCO)CC2)n1 [NCGC00181129-06] | 0.1044 | 0.0067 | > 10 | > 10 | > 10 | > 10 | > 10 | 0.8748 |  |
| Clc1cc(Cl)c(OCC#CI)cc1Cl [NCGC00181134-02] | > 20 | > 20 | > 10 | > 10 |  |  |  |  |  |
| C=CC(=O)Nc1cc2c(Nc3ccc(F)c(Cl)c3)ncnc2cc1OCCCN1CCOCC1 [NCGC00182713-01] | 1.0017 | 9.4628 |  |  | 8.8729 | > 10 | 4.2934 | 2.0936 | Hela CellCycMod PI S Phase IC50/EC50 (HeLa cells): > 10 µM |
| CCCCCCCCCCCCCC[N+](C)(C)Cc1ccccc1 [NCGC00187943-02] | > 20 | > 20 | 8.357 | 3.0091 |  |  |  |  |  |
| CN1CC[C@H](c2c(O)cc(O)c3c(=O)cc(-c4ccccc4Cl)oc23)[C@H](O)C1.Cl [NCGC00250401-02] | 0.1905 | 0.4611 | 0.3284 | 0.1138 | > 10 | > 10 | 0.0807 | 0.0212 |  |
| O.O.O.O.O=C1OC2(c3cc(Br)c([O-])cc3Oc3c2cc(Br)c([O-])[c]3[Hg])c2ccccc21.[Na+].[Na+] (centres unmarked) [NCGC00262588-02] | 16.8578 | > 20 |  |  |  |  |  |  |  |
| Cc1c2oc3c(C)ccc(C(=O)N[C@@H]4C(=O)N[C@H](C(C)C)C(=O)N5CCC[C@H]5C(=O)N(C)CC(=O)N(C)[C@@H](C(C)C)C(=O)O[C@@H]4C)c3nc-2c(C(=O)N[C@@H]2C(=O)N[C@H](C(C)C)C(=O)N3CCC[C@H]3C(=O)N(C)CC(=O)N(C)[C@@H](C(C)C)C(=O)O[C@@H]2C)c(N)c1=O [NCGC00271789-02] (I: T[dV]P[Sar][NMeV] / II: T[dV]P[Sar][NMeV]; ester I:1-I:C, II:1-II:C; linker I:N-II:N via Actinocin(9to1)) | 0.037 | 0.0015 | 0.04031 | 0.001 |  |  |  |  |  |
| CCCCCCCCCCCCNCCNCCNCC(=O)O [NCGC00274269-01] | > 20 | > 20 | > 10 | 6.0404 | > 10 | > 10 | > 10 | > 10 | Hela CellCycMod PI S Phase IC50/EC50 (HeLa cells): > 10 µM |
| COc1cccc2c1C(=O)c1c(O)c3c(c(O)c1C2=O)C[C@@](O)(C(=O)CO)CC3OC1CC(N2CCOC(OC)C2)C(O)C(C)O1 (some centres unmarked) [NCGC00319019-01] | 0.0135 | > 20 | 0.04422 | 0.003 |  | > 10 | 0.01176 | 0.00468 | Basal_Viability ATP SW480 IC50/EC50 (SW480; assay number 24): 0.001 µM; Basal_Viability ATP RKO IC50/EC50 (RKO): 0.001 µM; Basal_Viability ATP DLD-1 IC50/EC50 (DLD-1; assay number 23): 0.001 µM; Basal_Viability ATP Colo 320 IC50/EC50 (Colo320; assay number 27): 0.001 µM; GSK3b inh pretreated_Viability ATP HCT116 IC50/EC50 ([5]; assay number 26): 0.001 µM |
| Cc1ccc([N+](=O)[O-])[c]2c1[O][Hg]2 [nitromersol, reference compound] |  |  |  |  |  |  |  |  | IC50 (hKDR): 16.8 µM; IC50 (hFLT3): 10.4 µM; IC50 (SW480; read-out: Basal_Viability ATP SW480): 1.13 µM; EC50 (INS-1E cells): > 20 µM; EC50 (HeLa cells; IC50 / EC50, HeLa, read-out: CellCycle G2/M): > 10 µM; IC50 (DLD-1; read-out: Basal_Viability ATP DLD-1): 1.62 µM; IC50 (hGSK3b): 8.37 µM; EC50 ([1]; IC50 / EC50, C2C12 beta-catenin translocation, read-out: Wnt Pathway): 0.155 µM; IC50 (SNU-C1): 0.202 µM; IC50 (Colo320; read-out: Basal_Viability ATP Colo 320): 0.935 µM; activity in STC-1 GLP-1 secretion assay (in words) (STC-1 cell line): potent actives; IC50 (hp70S6K1 (RPS6KB1)): > 20 µM; IC50 (hJAK2): > 20 µM; IC50 (HT-29): 1.44 µM; IC50 (HCT116): 2.83 µM; activity in NCI-H716 GLP-1 secretion assay (in words) (NCI-H716 cells): potent actives; EC50 (NCI-H716 cells; IC50 / EC50, NCI-H716, read-out: GLP 1 Secretion): 0.0972 µM; IC50 ([4]; IC50 / EC50, endothelial tube area, ADSC/ECFC co-culture, read-out: Anti-Angiogenesis): 0.668 µM; IC50 ([5]; read-out: GSK3b inh pretreated_Viability ATP HCT116): > 20 µM |
